Assay results taken from patent publication US10363239B2, “Method for inhibiting growth of cancer cells” (Pain Therapeutics, Inc., priority 2013, dated 2019).
Read-outs that look alike come from different tables or passages of the source.

Key:
[1] = test system: mu opiate receptor (MOR); test: MOR agonist activity using [35S]GTPγS binding assay in striatal membranes; format: biochemical
Summary of the method: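 Striatal membranes (200 μg) were preincubated 5 min at 30 °C in HEPES pH 7.5 with 100 mM NaCl, 1 mM MgCl2 and 0.5 nM [35S]GTPγS, then 5 min more with 0.1–10 μM compound. Gαo was immunoprecipitated and bound radioactivity counted by scintillation.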

[2] = biological target: FLNA pentapeptide of SEQ ID NO: 1 (Bn-VAKGL) (Homo sapiens, UniProt P21333); test: FITC-NLX-based FLNA screening assay (inhibition of FITC-naloxone binding to Bn-VAKGL on streptavidin plates); conditions: 10 nM FITC-NLX
[3] = Series C-2, 0.1 μM compound, relative to DAMGO
[4] = Series C-2, 0.1 μM compound, [35S]GTPγS binding to Gαo, striatal membranes
[5] = Series C-2, 1 μM compound + 1 μM β-FNA
[6] = Series C-2, 1 μM compound + β-FNA, relative to DAMGO + BFNA
[7] = Series C-2, 1 μM compound, relative to DAMGO
[8] = Series C-2, 1 μM compound, [35S]GTPγS binding to Gαo, striatal membranes
[9] = FLNA-binding compound 0.01 μM, read-out: Percent Binding Inhibition
[10] = FLNA-binding compound 0.1 μM, read-out: Percent Binding Inhibition
[11] = FLNA-binding compound 1 μM, read-out: Percent Binding Inhibition
[12] = Series C-1, 0.1 μM compound, relative to DAMGO
[13] = Series C-1, 0.1 μM compound, [35S]GTPγS binding to Gαo, striatal membranes
[14] = Series C-1, 1 μM compound + 1 μM β-FNA
[15] = Series C-1, 1 μM compound + β-FNA, relative to DAMGO + BFNA
[16] = Series C-1, 1 μM compound, relative to DAMGO
[17] = Series C-1, 1 μM compound, [35S]GTPγS binding to Gαo, striatal membranes
[18] = read-out: Percent Binding Inhibition, FLNA-binding compound 0.01 μM
[19] = read-out: Percent Binding Inhibition, FLNA-binding compound 0.1 μM
[20] = read-out: Percent Binding Inhibition, FLNA-binding compound 1 μM
[21] = Series B, 0.1 μM compound, relative to DAMGO
[22] = Series B, 0.1 μM compound, [35S]GTPγS binding to Gαo, striatal membranes
[23] = Series B, 1 μM compound + 1 μM β-FNA
[24] = Series B, 1 μM compound + β-FNA, relative to DAMGO + BFNA
[25] = Series B, 1 μM compound, relative to DAMGO
[26] = Series B, 1 μM compound, [35S]GTPγS binding to Gαo, striatal membranes

Question: Which results are given for `O=[N+]([O-])c1ccc(S(=O)(=O)N2CCC3(CC2)NCCCO3)cc1` [Compound C0045]?
Answer: % DAMGO (0.1 μM) [1, 3]: 88.3%; MOR agonist activity, percent [35S]GTPγS binding at the stated compound concentration [1, 4]: 149.2%; MOR agonist activity, percent [35S]GTPγS binding at the stated compound concentration [1, 5]: 105.3%; % DAMGO + BFNA [1, 6]: 634.3%; % DAMGO (1 μM) [1, 7]: 109.1%; MOR agonist activity, percent [35S]GTPγS binding at the stated compound concentration [1, 8]: 238.8%; inhibition at 0.01 µM [2, 9]: 39.1%; inhibition at 0.1 µM [2, 10]: 48.9%; inhibition at 1 µM [2, 11]: 53.7%

Question: What does the source list for `Cc1ccc(S(=O)(=O)N2CCC3(CC2)OCCN3S(=O)(=O)c2ccc(C)cc2)cc1` [Compound C0001]?
Answer: % DAMGO (0.1 μM) [1, 12]: 75.2%; Concentration of FLNA-Binding Compound as Agonist 0.1 μM [1, 13]: 129.3%; Concentration of FLNA-Binding Compound as Agonist 1 μM + BFNA [1, 14]: 33.9%; % DAMGO + BFNA [1, 15]: 52.9%; % DAMGO (1 μM) [1, 16]: 66.6%; Concentration of FLNA-Binding Compound as Agonist 1 μM [1, 17]: 184.3%; inhibition at 0.01 µM [2, 18]: 34.8%; inhibition at 0.1 µM [2, 19]: 42.9%; inhibition at 1 µM [2, 20]: 51.3%

Question: How did the “% DAMGO (0.1 μM)” value [1, 21] turn out when `COc1ccccc1CC(=O)CC1c2c(cc3c(c2OC)OCO3)CC[N+]1(C)C` (stereo not drawn) [Compound 5009] was run?
Answer: 66.9%

Question: And the “MOR agonist activity, percent [35S]GTPγS binding at the stated compound concentration” value (“MOR agonist activity, percent” below) [1, 22]?
Answer: 128.5%

Question: What about the “MOR agonist activity, percent” value [1, 23] of the same compound?
Answer: 87.5%

Question: And the “% DAMGO + BFNA” value [1, 24]?
Answer: 181.5%

Question: What about the “% DAMGO (1 μM)” value [1, 25] of the same compound?
Answer: 83.2%

Question: And the “MOR agonist activity, percent” value [1, 26]?
Answer: 270.4%

Question: What about the inhibition at 0.01 µM [2, 18] of the same compound?
Answer: 42.5%

Question: And the inhibition at 0.1 µM [2, 19]?
Answer: 47.3%

Question: And the inhibition at 1 µM [2, 20]?
Answer: 54.3%

Question: Which “% DAMGO (0.1 μM)” value [1, 12] does the source give for `CC(=O)c1ccc(S(=O)(=O)N2CCC3(CC2)NC(=O)CN3S(=O)(=O)c2ccc(C(C)=O)cc2)cc1` [Compound C0064] here?
Answer: 124.2%

Question: What about the “Concentration of FLNA-Binding Compound as Agonist 0.1 μM” value [1, 13] of the same compound?
Answer: 213.8%

Question: What about the “Concentration of FLNA-Binding Compound as Agonist 1 μM + BFNA” value [1, 14] of the same compound?
Answer: 38.1%

Question: What about the “% DAMGO + BFNA” value [1, 15] of the same compound?
Answer: 110.4%

Question: What about the “% DAMGO (1 μM)” value [1, 16] of the same compound?
Answer: 159.1%

Question: And the “Concentration of FLNA-Binding Compound as Agonist 1 μM” value [1, 17]?
Answer: 349.6%

Question: What about the inhibition at 0.01 µM [2, 18] of the same compound?
Answer: 37.3%

Question: What about the inhibition at 0.1 µM [2, 19] of the same compound?
Answer: 44.4%

Question: What about the inhibition at 1 µM [2, 20] of the same compound?
Answer: 49.2%

Question: Which “% DAMGO (0.1 μM)” value [1, 3] does the source give for `O=C1CNC2(CCNCC2)N1Cc1ccccc1` [Compound C0114M] here?
Answer: 77.6%

Question: And the “MOR agonist activity, percent” value [1, 4]?
Answer: 114.0%

Question: What about the “MOR agonist activity, percent” value [1, 5] of the same compound?
Answer: 35.9%

Question: What about the “% DAMGO + BFNA” value [1, 6] of the same compound?
Answer: 91.3%

Question: What about the “% DAMGO (1 μM)” value [1, 7] of the same compound?
Answer: 71.4%

Question: What about the “MOR agonist activity, percent” value [1, 8] of the same compound?
Answer: 144.3%

Question: And the inhibition at 0.01 µM [2, 18]?
Answer: 57.1%

Question: What about the inhibition at 0.1 µM [2, 19] of the same compound?
Answer: 63.2%

Question: What about the inhibition at 1 µM [2, 20] of the same compound?
Answer: 66.7%

Question: With `CC1CCC(C(C)C)C(OCC(O)CN2CCC2)C1` (stereo not drawn) [Compound A0015] as the compound, how does the “MOR agonist activity ([35S]GTPγS binding), FLNA-Binding Compound as Agonist 0.1 μM” value ([1]; 0.1 μM compound) read?
Answer: 110.9%

Question: And the “% DAMGO (0.1 μM)” value ([1]; 0.1 μM compound relative to DAMGO)?
Answer: 64.8%

Question: What about the “MOR agonist activity ([35S]GTPγS binding), FLNA-Binding Compound as Agonist 1 μM” value ([1]; 1 μM compound) of the same compound?
Answer: 150.1%

Question: And the “MOR agonist activity ([35S]GTPγS binding), FLNA-Binding Compound as Agonist 1 μM + BFNA” value ([1]; 1 μM compound + 1 μM β-funaltrexamine)?
Answer: 62.5%

Question: And the “% DAMGO + BFNA” value ([1]; 1 μM compound + BFNA relative to DAMGO + BFNA)?
Answer: 120.0%

Question: What about the “% DAMGO (1 μM)” value ([1]; 1 μM compound relative to DAMGO) of the same compound?
Answer: 56.2%

Question: What about the inhibition at 0.01 µM [2, 18] of the same compound?
Answer: 36.3%

Question: And the inhibition at 0.1 µM [2, 19]?
Answer: 46.8%

Question: And the inhibition at 1 µM [2, 20]?
Answer: 55%

Question: For `COc1ccccc1CC(O)CC1c2c(cc3c(c2OC)OCO3)CCN1C` (stereo not drawn) [Compound B0030], which “% DAMGO (0.1 μM)” value [1, 21] is on record?
Answer: 62.6%

Question: What about the “MOR agonist activity, percent” value [1, 22] of the same compound?
Answer: 107.2%

Question: And the “MOR agonist activity, percent” value [1, 23]?
Answer: 90.1%

Question: And the “% DAMGO + BFNA” value [1, 24]?
Answer: 172.9%

Question: And the “% DAMGO (1 μM)” value [1, 25]?
Answer: 103.4%

Question: And the “MOR agonist activity, percent” value [1, 26]?
Answer: 276.1%

Question: What about the inhibition at 0.01 µM [2, 9] of the same compound?
Answer: 47%

Question: And the inhibition at 0.1 µM [2, 10]?
Answer: 50.5%

Question: And the inhibition at 1 µM [2, 11]?
Answer: 57.6%
